Experimental data as given in patent US11820773B2, “Tricyclic compounds” (ALIGOS THERAPEUTICS, INC., priority 2020, dated 2023).
pEC50: −log10 of the molar value.

system: HBV; experiment: HBV-DNA antiviral assay using HepG2.117 cells (intracellular HBV DNA by qPCR); type: cell-based, genotype D HBV; conditions: Hepatitis B virus, 72 h, HBV DNA inhibition, 3 days incubation, 2% DMSO
In short: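 Endpoints are intracellular HBV DNA by qPCR (interpolated from a gBlock standard curve) and ATP-based viability in duplicate plates. Doxycycline-free HepG2.117 Tet-off cells received compounds (9 concentrations, 4-fold steps, 2% DMSO) for 3 days. Inhibition normalised to DMSO wells; EC50/EC90/CC50 by curve fitting.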

SMILES	pEC50
CNC(=O)c1cnc(-n2c(=O)c3c(n4ncc(CC(C)C)c24)CN(C(=O)c2ccc(Br)c(C(F)(F)F)c2)[C@@H](C)C3)cn1 (stereo in doubt) [Compound 89b, [rac-(11S)-12-[4-bromo-3-(trifluoromethyl)benzoyl]-5-isobutyl-11-methyl-8-oxo-2,3,7,12-tetrazatricyclo[7.4.0.0^2,6]trideca-1(9),3,5-trien-7-yl]pyrazine-2-carboxamide]	6.30 to 7.30
C[C@H]1Cc2c(n3ncc(CC4CC4)c3n(-c3ccc(C(=O)N(C)CO)cc3)c2=O)CN1C(=O)c1ccc(Br)c(C(F)(F)F)c1 (stereo in doubt) [Compound 91, N-(hydroxymethyl)-N-methyl-4-[rac-(11S)-12-[4-bromo-3-(trifluoromethyl)benzoyl]-5-(cyclopropylmethyl)-11-methyl-8-oxo-2,3,7,12-tetrazatricyclo[7.4.0.0^2,6]trideca-1 (9),3,5-trien-7-yl]benzamide]	< 5.30
C[C@@H]1Cc2c(n3ncc(Cc4ccccc4)c3n(-c3ccc(-n4nnnc4C(F)(F)F)cc3)c2=O)CN1C(=O)c1ccc(Br)c(C(F)(F)F)c1 (stereo in doubt) [Compound 92a, rac-(11R)-5-benzyl-12-[4-bromo-3-(trifluoromethyl)benzoyl]-11-methyl-7-[4-[5-(trifluoromethyl)tetrazol-1-yl]phenyl]-2,3,7,12-tetrazatricyclo[7.4.0.0^2,6]trideca-1(9),3,5-trien-8-one]	> 7.30
C[C@H]1Cc2c(n3ncc(Cc4ccccc4)c3n(-c3ccc(-n4nnnc4C(F)(F)F)cc3)c2=O)CN1C(=O)c1ccc(Br)c(C(F)(F)F)c1 (stereo in doubt) [Compound 92b, rac-(11S)-5-benzyl-12-[4-bromo-3-(trifluoromethyl)benzoyl]-11-methyl-7-[4-[5-(trifluoromethyl)tetrazol-1-yl]phenyl]-2,3,7,12-tetrazatricyclo[7.4.0.0^2,6]trideca-1(9),3,5-trien-8-one]	< 5.30
C[C@@H]1Cc2c(n3ncc(CC4CC4)c3n(-c3ccc(-c4nc(=O)on4C)cc3)c2=O)CN1C(=O)c1ccc(Br)c(C(F)(F)F)c1 (stereo in doubt) [Compound 93a, 2-methyl-3-[4-[rac-(11R)-12-[4-bromo-3-(trifluoromethyl)benzoyl]-5-(cyclopropylmethyl)-11-methyl-8-oxo-2,3,7,12-tetrazatricyclo[7.4.0.0^2,6]trideca-1(9),3,5-trien-7-yl]phenyl]-1,2,4-oxadiazol-5-one]	> 7.30
C[C@H]1Cc2c(n3ncc(CC4CC4)c3n(-c3ccc(-c4nc(=O)on4C)cc3)c2=O)CN1C(=O)c1ccc(Br)c(C(F)(F)F)c1 (stereo in doubt) [Compound 93b, 2-methyl-3-[4-[rac-(11S)-12-[4-bromo-3-(trifluoromethyl)benzoyl]-5-(cyclopropylmethyl)-11-methyl-8-oxo-2,3,7,12-tetrazatricyclo[7.4.0.0^2,6]trideca-1(9),3,5-trien-7-yl]phenyl]-1,2,4-oxadiazol-5-one]	> 7.30
CC(C)Cc1cnn2c3c(c(=O)n(-c4ccc(-c5nc(=O)on5C)cc4)c12)C[C@@H](C)N(C(=O)c1ccc(Br)c(C(F)(F)F)c1)C3 (stereo in doubt) [Compound 94a, 2-methyl-3-[4-[rac-(11R)-12-[4-bromo-3-(trifluoromethyl)benzoyl]-5-isobutyl-11-methyl-8-oxo-2,3,7,12-tetrazatricyclo[7.4.0.0^2,6]trideca-1(9),3,5-trien-7-yl]phenyl]-1,2,4-oxadiazol-5-one]	> 7.30
CC(C)Cc1cnn2c3c(c(=O)n(-c4ccc(-c5nc(=O)on5C)cc4)c12)C[C@H](C)N(C(=O)c1ccc(Br)c(C(F)(F)F)c1)C3 (stereo in doubt) [Compound 94b, 2-methyl-3-[4-[rac-(11S)-12-[4-bromo-3-(trifluoromethyl)benzoyl]-5-isobutyl-11-methyl-8-oxo-2,3,7,12-tetrazatricyclo[7.4.0.0^2,6]trideca-1(9),3,5-trien-7-yl]phenyl]-1,2,4-oxadiazol-5-one]	6.30 to 7.30
CC(C)Cc1cnn2c3c(c(=O)n(-c4ccc5c(c4)nnn5C)c12)C[C@@H](C)N(C(=O)c1ccc(Br)c(C(F)(F)F)c1)C3 (stereo in doubt) [Compound 95a, rac-(11R)-12-[4-bromo-3-(trifluoromethyl)benzoyl]-5-isobutyl-11-methyl-7-(1-methylbenzotriazol-5-yl)-2,3,7,12-tetrazatricyclo[7.4.0.0^2,6]trideca-1(9),3,5-trien-8-one]	> 7.30
CC(C)Cc1cnn2c3c(c(=O)n(-c4ccc5c(c4)nnn5C)c12)C[C@H](C)N(C(=O)c1ccc(Br)c(C(F)(F)F)c1)C3 (stereo in doubt) [Compound 95b, rac-(11S)-12-[4-bromo-3-(trifluoromethyl)benzoyl]-5-isobutyl-11-methyl-7-(1-methylbenzotriazol-5-yl)-2,3,7,12-tetrazatricyclo[7.4.0.0^2,6]trideca-1(9),3,5-trien-8-one]	6.30 to 7.30
Cc1cnn(-c2ccc(-n3c(=O)c4c(n5ncc(CC(C)C)c35)CN(C(=O)c3ccc(Br)c(C(F)(F)F)c3)[C@H](C)C4)cc2)c1 (stereo in doubt) [Compound 98a, rac-(11R)-12-[4-bromo-3-(trifluoromethyl)benzoyl]-5-isobutyl-11-methyl-7-[4-(4-methylpyrazol-1-yl)phenyl]-2,3,7,12-tetrazatricyclo[7.4.0.0^2,6]trideca-1(9),3,5-trien-8-one]	> 7.30
Cc1cnn(-c2ccc(-n3c(=O)c4c(n5ncc(CC(C)C)c35)CN(C(=O)c3ccc(Br)c(C(F)(F)F)c3)[C@@H](C)C4)cc2)c1 (stereo in doubt) [Compound 98b, rac-(11S)-12-[4-bromo-3-(trifluoromethyl)benzoyl]-5-isobutyl-11-methyl-7-[4-(4-methylpyrazol-1-yl)phenyl]-2,3,7,12-tetrazatricyclo[7.4.0.0^2,6]trideca-1(9),3,5-trien-8-one]	6.30 to 7.30
Cc1cnn(-c2ccc(-n3c(=O)c4c(n5ncc(CC(C)C)c35)CN(C(=O)c3ccc(Br)c(C(F)(F)F)c3)[C@H](C)C4)cc2)n1 (stereo in doubt) [Compound 99a, rac-(11R)-12-[4-bromo-3-(trifluoromethyl)benzoyl]-5-isobutyl-11-methyl-7-[4-(4-methyltriazol-2-yl)phenyl]-2,3,7,12-tetrazatricyclo[7.4.0.0^2,6]trideca-1(9),3,5-trien-8-one]	> 7.30
Cc1cnn(-c2ccc(-n3c(=O)c4c(n5ncc(CC(C)C)c35)CN(C(=O)c3ccc(Br)c(C(F)(F)F)c3)[C@@H](C)C4)cc2)n1 (stereo in doubt) [Compound 99b, rac-(11S)-12-[4-bromo-3-(trifluoromethyl)benzoyl]-5-isobutyl-11-methyl-7-[4-(4-methyltriazol-2-yl)phenyl]-2,3,7,12-tetrazatricyclo[7.4.0.0^2,6]trideca-1(9),3,5-trien-8-one]	5.30 to 6.30
Cc1ccn(-c2ccc(-n3c(=O)c4c(n5ncc(CC(C)C)c35)CN(C(=O)c3ccc(Br)c(C(F)(F)F)c3)[C@H](C)C4)cc2)n1 (stereo in doubt) [Compound 100a, rac-(11R)-12-[4-bromo-3-(trifluoromethyl)benzoyl]-5-isobutyl-11-methyl-7-[4-(3-methylpyrazol-1-yl)phenyl]-2,3,7,12-tetrazatricyclo[7.4.0.0^2,6]trideca-1(9),3,5-trien-8-one]	> 7.30
